Results as given in patent publication US12077503B2, “Substituted cyclic amides and their use as herbicides” (FMC CORPORATION, priority 2015, dated 2024).

How the values were obtained:
Type in all cases: in vivo
[1] = test system: ivy-leaved morning glory (Ipomoea hederacea); assay: Test G Pre-Emergence Protocol; conditions: Ipomoea, pre-emergence, 312 h, evaluated after 13 days; for pest or weed control at 15.625 g/ha: 15.625 g ai/ha, read-out: Morning-glory, Ivy-leaved damage rating (100=total damage to plant; 0=no damage to plant); for pest or weed control at 62.5 g/ha: 62.5 g ai/ha, 100=total damage to plant, 0=no damage to plant, read-out: plant damage rating, Morningglory, Ivy-leaved; for pest or weed control at 250 g/ha: 250 g ai/ha, read-out: Morningglory, Ivy-leaved damage rating (100=total damage to plant; 0=no damage to plant)
Method in brief: (§1)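 Test compound in 0.5% Tween 20 acetone/water (50:50) was applied at three rates (15.625, 62.5, 250 g/ha) to soil sown one day earlier. After 13 days plants were scored for injury, where 0 means unaffected and 100 means completely damaged.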

[2] = test system: redroot pigweed (Amaranthus retroflexus); assay: Test G Pre-Emergence Protocol; conditions: Amaranthus retroflexus, pre-emergence, 312 h, evaluated after 13 days; for pest or weed control at 15.625 g/ha: 15.625 g ai/ha; for pest or weed control at 15.625 g/ha / pest or weed control at 250 g/ha: read-out: Pigweed, Redroot damage rating (100=total damage to plant; 0=no damage to plant); for pest or weed control at 62.5 g/ha: 62.5 g ai/ha, 100=total damage to plant, 0=no damage to plant, read-out: plant damage rating, Pigweed, Redroot; for pest or weed control at 250 g/ha: 250 g ai/ha
Method in brief: as §1

[3] = test system: barnyardgrass (Echinochloa crus-galli); assay: Test G Pre-Emergence Protocol; conditions: Echinochloa crus-galli, pre-emergence, 312 h, evaluated after 13 days; for pest or weed control at 15.625 g/ha: 15.625 g ai/ha, read-out: Barnyard grass damage rating (100=total damage to plant; 0=no damage to plant); for pest or weed control at 62.5 g/ha: 62.5 g ai/ha, 100=total damage to plant, 0=no damage to plant, read-out: plant damage rating, Barnyardgrass; for pest or weed control at 250 g/ha: 250 g ai/ha, read-out: Barnyardgrass damage rating (100=total damage to plant; 0=no damage to plant)
Method in brief: as §1

corn (Zea mays) [4] = assay: Test G Pre-Emergence Protocol; conditions: Zea mays, pre-emergence, 312 h, evaluated after 13 days; for plant injury at 15.625 g/ha: 15.625 g ai/ha; for plant injury at 15.625 g/ha / plant injury at 250 g/ha: read-out: Corn damage rating (100=total damage to plant; 0=no damage to plant); for plant injury at 62.5 g/ha: 62.5 g ai/ha, 100=total damage to plant, 0=no damage to plant, read-out: plant damage rating, Corn; for plant injury at 250 g/ha: 250 g ai/ha
Method in brief: as §1

[5] = test system: velvetleaf (Abutilon theophrasti); assay: Test G Pre-Emergence Protocol; conditions: Abutilon theophrasti, pre-emergence, 312 h, evaluated after 13 days; for pest or weed control at 15.625 g/ha: 15.625 g ai/ha; for pest or weed control at 15.625 g/ha / pest or weed control at 250 g/ha: read-out: Velvetleaf damage rating (100=total damage to plant; 0=no damage to plant); for pest or weed control at 62.5 g/ha: 62.5 g ai/ha, 100=total damage to plant, 0=no damage to plant, read-out: plant damage rating, Velvetleaf; for pest or weed control at 250 g/ha: 250 g ai/ha
Method in brief: as §1

[6] = test system: giant foxtail (Setaria faberi); assay: Test G Pre-Emergence Protocol; conditions: Setaria faberi, pre-emergence, 312 h, evaluated after 13 days; for pest or weed control at 15.625 g/ha: 15.625 g ai/ha; for pest or weed control at 15.625 g/ha / pest or weed control at 250 g/ha: read-out: Foxtail, Giant damage rating (100=total damage to plant; 0=no damage to plant); for pest or weed control at 62.5 g/ha: 62.5 g ai/ha, 100=total damage to plant, 0=no damage to plant, read-out: plant damage rating, Foxtail, Giant; for pest or weed control at 250 g/ha: 250 g ai/ha
Method in brief: as §1

[7] = test system: ivy-leaved morning glory (Ipomoea hederacea); assay: Test G Post-Emergence Protocol; conditions: Ipomoea, post-emergence, 312 h; for pest or weed control at 15.625 g/ha: 15.625 g ai/ha, evaluated after 13 days (100=total damage to plant; 0=no damage to plant), read-out: Morningglory, Ivy-leaved damage rating; for pest or weed control at 62.5 g/ha: 62.5 g ai/ha, read-out: Morningglory, Ivy-leaved damage rating (100=total damage to plant; 0=no damage to plant); for pest or weed control at 62.5 g/ha / pest or weed control at 250 g/ha: evaluated after 13 days; for pest or weed control at 250 g/ha: 250 g ai/ha, read-out: damage to plant, Morningglory, Ivy-leaved (100=total damage to plant; 0=no damage to plant)
Method in brief: (§2)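 Eight days post-sowing, plants received a spray of test compound (acetone/water 50:50, 0.5% Tween 20) at 15.625, 62.5 or 250 g/ha. Glasshouse regime thereafter: 24/16 °C, 14 h light, 65% humidity. Assessment after 13 days on a 0–100 damage scale.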

[8] = test system: redroot pigweed (Amaranthus retroflexus); assay: Test G Post-Emergence Protocol; conditions: Amaranthus retroflexus, post-emergence, 312 h; for pest or weed control at 15.625 g/ha: 15.625 g ai/ha, evaluated after 13 days (100=total damage to plant; 0=no damage to plant), read-out: Pigweed, Redroot damage rating; for pest or weed control at 62.5 g/ha: 62.5 g ai/ha, read-out: Pigweed, Redroot damage rating (100=total damage to plant; 0=no damage to plant); for pest or weed control at 62.5 g/ha / pest or weed control at 250 g/ha: evaluated after 13 days; for pest or weed control at 250 g/ha: 250 g ai/ha, read-out: damage to plant, Pigweed, Redroot (100=total damage to plant; 0=no damage to plant)
Method in brief: as §2

[9] = test system: barnyardgrass (Echinochloa crus-galli); assay: Test G Post-Emergence Protocol; conditions: Echinochloa crus-galli, post-emergence, 312 h; for pest or weed control at 15.625 g/ha: 15.625 g ai/ha, evaluated after 13 days (100=total damage to plant; 0=no damage to plant), read-out: Barnyardgrass damage rating; for pest or weed control at 62.5 g/ha: 62.5 g ai/ha, read-out: Barnyardgrass damage rating (100=total damage to plant; 0=no damage to plant); for pest or weed control at 62.5 g/ha / pest or weed control at 250 g/ha: evaluated after 13 days; for pest or weed control at 250 g/ha: 250 g ai/ha, read-out: damage to plant, Barnyardgrass (100=total damage to plant; 0=no damage to plant)
Method in brief: as §2

corn (Zea mays) [10] = assay: Test G Post-Emergence Protocol; conditions: Zea mays, post-emergence, 312 h; for plant injury at 15.625 g/ha: 15.625 g ai/ha, evaluated after 13 days (100=total damage to plant; 0=no damage to plant), read-out: Corn damage rating; for plant injury at 62.5 g/ha: 62.5 g ai/ha, read-out: Corn damage rating (100=total damage to plant; 0=no damage to plant); for plant injury at 62.5 g/ha / plant injury at 250 g/ha: evaluated after 13 days; for plant injury at 250 g/ha: 250 g ai/ha, read-out: damage to plant, Corn (100=total damage to plant; 0=no damage to plant)
Method in brief: as §2

[11] = test system: velvetleaf (Abutilon theophrasti); assay: Test G Post-Emergence Protocol; conditions: Abutilon theophrasti, post-emergence, 312 h; for pest or weed control at 15.625 g/ha: 15.625 g ai/ha, evaluated after 13 days (100=total damage to plant; 0=no damage to plant), read-out: Velvetleaf damage rating; for pest or weed control at 62.5 g/ha: 62.5 g ai/ha, read-out: Velvetleaf damage rating (100=total damage to plant; 0=no damage to plant); for pest or weed control at 62.5 g/ha / pest or weed control at 250 g/ha: evaluated after 13 days; for pest or weed control at 250 g/ha: 250 g ai/ha, read-out: damage to plant, Velvetleaf (100=total damage to plant; 0=no damage to plant)
Method in brief: as §2

[12] = test system: giant foxtail (Setaria faberi); assay: Test G Post-Emergence Protocol; conditions: Setaria faberi, post-emergence, 312 h; for pest or weed control at 15.625 g/ha: 15.625 g ai/ha, evaluated after 13 days (100=total damage to plant; 0=no damage to plant), read-out: Foxtail, Giant damage rating; for pest or weed control at 62.5 g/ha: 62.5 g ai/ha, read-out: Foxtail, Giant damage rating (100=total damage to plant; 0=no damage to plant); for pest or weed control at 62.5 g/ha / pest or weed control at 250 g/ha: evaluated after 13 days; for pest or weed control at 250 g/ha: 250 g ai/ha, read-out: damage to plant, Foxtail, Giant (100=total damage to plant; 0=no damage to plant)
Method in brief: as §2

| Compound | pest or weed control at 15.625 g/ha [1] | pest or weed control at 250 g/ha [1] | pest or weed control at 15.625 g/ha [2] | pest or weed control at 62.5 g/ha [2] | pest or weed control at 250 g/ha [2] | pest or weed control at 15.625 g/ha [3] | pest or weed control at 62.5 g/ha [3] | pest or weed control at 250 g/ha [3] | plant injury at 15.625 g/ha (corn (Zea mays) [4]) | plant injury at 62.5 g/ha (corn (Zea mays) [4]) | plant injury at 250 g/ha (corn (Zea mays) [4]) | pest or weed control at 15.625 g/ha [5] | pest or weed control at 62.5 g/ha [5] | pest or weed control at 250 g/ha [5] | pest or weed control at 15.625 g/ha [6] | pest or weed control at 62.5 g/ha [6] | pest or weed control at 250 g/ha [6] | pest or weed control at 15.625 g/ha [7] | pest or weed control at 62.5 g/ha [7] | pest or weed control at 250 g/ha [7] | further results |
| --- | --- | --- | --- | --- | --- | --- | --- | --- | --- | --- | --- | --- | --- | --- | --- | --- | --- | --- | --- | --- | --- |
| CN1C[C@H](c2ccc(C(F)(F)F)cc2)[C@@H](C(=O)Nc2ccc(F)cn2)C1=O (racemic) [Compound 1450] | 0% | 0% | 0% | 0% | 80% | 10% | 30% | 70% | 0% | 0% | 0% | 0% | 0% | 0% | 40% | 70% | 90% | 0% | 10% | 20% | pest or weed control at 62.5 g/ha [1]: 0%; pest or weed control at 15.625 g/ha [8]: 0%; pest or weed control at 62.5 g/ha [8]: 0%; pest or weed control at 250 g/ha [8]: 30%; pest or weed control at 15.625 g/ha [9]: 0%; pest or weed control at 62.5 g/ha [9]: 10%; pest or weed control at 250 g/ha [9]: 20%; plant injury at 15.625 g/ha (corn (Zea mays) [10]): 0%; plant injury at 62.5 g/ha (corn (Zea mays) [10]): 10%; plant injury at 250 g/ha (corn (Zea mays) [10]): 10%; pest or weed control at 15.625 g/ha [11]: 0%; pest or weed control at 62.5 g/ha [11]: 0%; pest or weed control at 250 g/ha [11]: 0%; pest or weed control at 15.625 g/ha [12]: 0%; pest or weed control at 62.5 g/ha [12]: 30%; pest or weed control at 250 g/ha [12]: 60% |
| CN1C[C@H](c2ccc(F)c(OCC(F)(F)F)c2)[C@@H](C(=O)Nc2ccccc2F)C1=O (racemic) [Compound 1456] | 0% | 40% | 0% | 0% | 90% | 20% | 60% | 80% | 0% | 0% | 40% | 0% | 0% | 40% | 60% | 80% | 90% | 30% | 30% | 20% | pest or weed control at 15.625 g/ha [8]: 0%; pest or weed control at 62.5 g/ha [8]: 30%; pest or weed control at 250 g/ha [8]: 40%; pest or weed control at 15.625 g/ha [9]: 10%; pest or weed control at 62.5 g/ha [9]: 10%; pest or weed control at 250 g/ha [9]: 20%; plant injury at 15.625 g/ha (corn (Zea mays) [10]): 10%; plant injury at 62.5 g/ha (corn (Zea mays) [10]): 20%; plant injury at 250 g/ha (corn (Zea mays) [10]): 60%; pest or weed control at 15.625 g/ha [11]: 0%; pest or weed control at 62.5 g/ha [11]: 20%; pest or weed control at 250 g/ha [11]: 20%; pest or weed control at 15.625 g/ha [12]: 50%; pest or weed control at 62.5 g/ha [12]: 60%; pest or weed control at 250 g/ha [12]: 70% |
| CN1C[C@@H](c2ccc(Cl)nc2)[C@H](C(=O)Nc2cccc(F)c2F)C1=O (racemic) [Compound 1462] | 0% | 50% | 0% | 0% | 0% | 20% | 50% | 80% | 0% | 0% | 0% | 0% | 0% | 0% | 0% | 70% | 80% | 0% | 20% | 10% | pest or weed control at 62.5 g/ha [1]: 0%; pest or weed control at 15.625 g/ha [8]: 0%; pest or weed control at 62.5 g/ha [8]: 0%; pest or weed control at 250 g/ha [8]: 0%; pest or weed control at 15.625 g/ha [9]: 0%; pest or weed control at 62.5 g/ha [9]: 20%; pest or weed control at 250 g/ha [9]: 30%; plant injury at 15.625 g/ha (corn (Zea mays) [10]): 0%; plant injury at 62.5 g/ha (corn (Zea mays) [10]): 0%; plant injury at 250 g/ha (corn (Zea mays) [10]): 10%; pest or weed control at 15.625 g/ha [11]: 0%; pest or weed control at 62.5 g/ha [11]: 0%; pest or weed control at 250 g/ha [11]: 0%; pest or weed control at 15.625 g/ha [12]: 0%; pest or weed control at 62.5 g/ha [12]: 50%; pest or weed control at 250 g/ha [12]: 70% |
